Read-outs that look alike come from different tables or passages of the source.
Experiments:
[1] = tested on: Pyricularia oryzae; assay type: cell-based; conditions: PO, 48 hours
[2] = tested on: Cladosporium cucumerinum; assay: Spore germination test; assay type: cell-based; conditions: CC, 48 hours
Description: CC = Cladosporium cucumerinum
(§1) The test chemical was dissolved or suspended in acetone in an amount such that 0.8 ml of the resulting suspension or solution, mixed with 40 ml water agar produced a water agar solution containing 40, 10, 2.5 and 1 ppm of test chemical. The resulting agar solution, at 50° C., was then divided equally between two sterile petri dishes, each having four separated quadrants, and allowed to solidify. […] quadrants of each dish were flooded with 0.1 ml of a spore suspension in sterile water. Spores of two pathogens, Erysiphe polygoni and Uromyes phaseoli, from infected plant leaves, were brushed on the remaining two quadrants. The tests were then incubated 48 hours, at 24° C.
(§2) Readings were then taken and the percentage of germinated spores calculated. From this percentage, a spore germination rating was assigned as follows: […]

[3] = tested on: Venturia inaequalis; assay: Spore germination test; assay type: cell-based; conditions: VI, 48 hours
Description: VI = Venturia inaequalis
as §1, §2

[4] = tested on: Erysiphe polygoni; assay: Spore germination test; assay type: cell-based; conditions: EP, 48 hours
Description: as §1, §2

[5] = tested on: Uromyces phaseoli; assay: Spore germination test; assay type: cell-based; conditions: UP, 48 hours
Description: as §1, §2

[6] = tested on: Alternaria solani; assay: Spore germination test; assay type: cell-based; conditions: AS, 48 hours
Description: as §1, §2

[7] = tested on: Botrytis cinerea; assay: Spore germination test; assay type: cell-based; conditions: BC, 48 hours
Description: as §1, §2

[8] = tested on: Phytophthora infestans; assay type: cell-based; conditions: PI, 48 hours
[9] = tested on: Uromyces phaseoli; assay: whole plant or invertebrate; conditions: foliar, read-out: Percent Disease Control, foliar, bean rust
[10] = tested on: Phytophthora infestans; assay: whole plant or invertebrate; assay type: in vivo; conditions: Phytophthora infestans, in Solanum lycopersicum, foliar, read-out: Percent Disease Control, foliar, tomato late blight, 150 ppm, protective
[11] = tested on: Sclerotinia fructicola; assay: Mycelial growth test; assay type: cell-based; conditions: Sclerotinia, 72 h, SF, read-out: Percent Fungus Growth Inhibition
Text: | SF = Sclerotinia fructicola

[12] = tested on: Fusarium solani; assay: Mycelial growth test; assay type: cell-based; conditions: Fusarium solani, 72 h; for inhibition at 5 ppm / inhibition at 10 ppm / inhibition at 20 ppm: PS, 72 hours, read-out: Percent Fungus Growth Inhibition; for inhibition at 40 ppm: read-out: Percent Fungus Growth Inhibition, PS, 40 ppm, 72 hours
[13] = tested on: Alternaria solani; assay: Mycelial growth test; assay type: cell-based; conditions: Alternaria solani, 72 h, AS, read-out: Percent Fungus Growth Inhibition
[14] = tested on: Pyricularia oryzae; assay: microbe, parasite or virus in culture; assay type: cell-based; conditions: Pyricularia oryzae, 72 h; for inhibition at 5 ppm: read-out: Percent Fungus Growth Inhibition, PO, 5 ppm, 72 hours; for inhibition at 10 ppm: read-out: Percent Fungus Growth Inhibition, PO, 10 ppm, 72 hours; for inhibition at 20 ppm: read-out: Percent Fungus Growth Inhibition, PO, 20 ppm, 72 hours; for inhibition at 40 ppm: read-out: Percent Fungus Growth Inhibition, PO, 40 ppm, 72 hours
[15] = tested on: Rhizoctonia solani; assay: Mycelial growth test; assay type: cell-based; conditions: Rhizoctonia solani, 72 h, RS, read-out: Percent Fungus Growth Inhibition
Text: | RS = Rhizoctonia solani

[16] = tested on: Cladosporium cucumerinum; assay: Mycelial growth test; assay type: cell-based; conditions: Cladosporium cucumerinum, CC, read-out: Percent Fungus Growth Inhibition; for inhibition at 5 ppm / inhibition at 10 ppm / inhibition at 40 ppm: 72 h; for inhibition at 20 ppm: CC20, 72 h
Text: |CC = Cladosporium cucumerinum

[17] = tested on: Pythium ultimum; assay: Mycelial growth test; assay type: cell-based; conditions: Globisporangium ultimum, 72 h, PU, read-out: Percent Fungus Growth Inhibition
[18] = tested on: Erysiphe polygoni; assay: whole plant or invertebrate; conditions: foliar, 24 h, read-out: Percent Disease Control, curative, bean powdery mildew
[19] = tested on: Pyricularia oryzae; assay: whole plant or invertebrate; assay type: in vivo; conditions: Pyricularia oryzae, foliar, 24 h, read-out: Percent Disease Control, curative, rice blast, 150 ppm, 24 hours after inoculation
[20] = tested on: Uromyces phaseoli; assay: whole plant or invertebrate; conditions: foliar, 24 h, read-out: Percent Disease Control, curative, bean rust
[21] = tested on: Helminthosporium oryzae; assay: Mycelial growth test; conditions: Bipolaris oryzae, 72 h
[22] = read-out: Percent Fungus Growth Inhibition

CCCCNC(=O)n1c(NC(=O)OC)nc2ccccc21 [Benomyl, reference compound]
Spore Germination Rating ([1]; 1.0 ppm): 4 (80-100) | Spore Germination Rating ([1]; 2.5 ppm): 4 (80-100) | Spore Germination Rating ([1]; 10 ppm): 3 (60-80) | Spore Germination Rating ([1]; 40 ppm): 0 (0-10) | Spore Germination Rating ([2]; 1.0 ppm): 4 (80-100) | Spore Germination Rating ([2]; 2.5 ppm): 4 (80-100) | Spore Germination Rating ([2]; 10 ppm): 3 (60-80) | Spore Germination Rating ([2]; 40 ppm): 0 (0-10) | Spore Germination Rating ([3]; 1.0 ppm): 3 (60-80) | Spore Germination Rating ([3]; 2.5 ppm): 3 (60-80) | Spore Germination Rating ([3]; 10 ppm): 0 (0-10) | Spore Germination Rating ([3]; 40 ppm): 0 (0-10) | Spore Germination Rating ([4]; 1.0 ppm): 2 (40-60) | Spore Germination Rating ([4]; 2.5 ppm): 2 (40-60) | Spore Germination Rating ([4]; 10 ppm): 0 (0-10) | Spore Germination Rating ([4]; 40 ppm): 0 (0-10) | Spore Germination Rating ([5]; 1.0 ppm): 4 (80-100) | Spore Germination Rating ([5]; 2.5 ppm): 1 (10-40) | Spore Germination Rating ([5]; 10 ppm): 1 (10-40) | Spore Germination Rating ([5]; 40 ppm): 0 (0-10) | Spore Germination Rating ([6]; 1.0 ppm): 4 (80-100) | Spore Germination Rating ([6]; 2.5 ppm): 4 (80-100) | Spore Germination Rating ([6]; 10 ppm): 4 (80-100) | Spore Germination Rating ([6]; 40 ppm): 4 (80-100) | Spore Germination Rating ([7]; 1.0 ppm): 4 (80-100) | Spore Germination Rating ([7]; 2.5 ppm): 4 (80-100) | Spore Germination Rating ([7]; 10 ppm): 4 (80-100) | Spore Germination Rating ([7]; 40 ppm): 4 (80-100) | Spore Germination Rating ([8]; 1.0 ppm): 2 (40-60) | Spore Germination Rating ([8]; 2.5 ppm): 2 (40-60) | Spore Germination Rating ([8]; 10 ppm): 0 (0-10) | Spore Germination Rating ([8]; 40 ppm): 1 (10-40)

O=C(OCc1ccccc1)Oc1ccc(Oc2nsnc(Cl)c2=O)cc1 [Compound 38, 3-chloro-5-[4-(phenylmethoxycarbonyloxy)phenoxyl]-4H-1,2,6-thiadiazin-4-one]
pest or weed control at 150 ppm [9]: 0% | pest or weed control at 150 ppm [10]: 0% | inhibition at 5 ppm [11]: 0% | inhibition at 10 ppm [11]: 0% | inhibition at 20 ppm [11]: 0% | inhibition at 40 ppm [11]: 8% | inhibition at 5 ppm [12]: 10% | inhibition at 10 ppm [12]: 20% | inhibition at 20 ppm [12]: 30% | inhibition at 40 ppm [12]: 35% | inhibition at 5 ppm [13]: 5% | inhibition at 10 ppm [13]: 48% | inhibition at 20 ppm [13]: 33% | inhibition at 40 ppm [13]: 90% | inhibition at 5 ppm [14]: 8% | inhibition at 10 ppm [14]: 15% | inhibition at 20 ppm [14]: 23% | inhibition at 40 ppm [14]: 46% | Spore Germination Rating ([1]; 1.0 ppm): 4 (80-100) | Spore Germination Rating ([1]; 2.5 ppm): 3 (60-80) | Spore Germination Rating ([1]; 10 ppm): 2 (40-60) | Spore Germination Rating ([1]; 40 ppm): 2 (40-60) | Spore Germination Rating ([2]; 1.0 ppm): 4 (80-100) | Spore Germination Rating ([2]; 2.5 ppm): 4 (80-100) | Spore Germination Rating ([2]; 10 ppm): 3 (60-80) | Spore Germination Rating ([2]; 40 ppm): 3 (60-80) | inhibition at 5 ppm [15]: 0% | inhibition at 10 ppm [15]: 0% | inhibition at 20 ppm [15]: 7% | inhibition at 40 ppm [15]: 33% | inhibition at 5 ppm [16]: 0% | inhibition at 10 ppm [16]: 0% | inhibition at 40 ppm [16]: 26% | inhibition at 20 ppm [16]: 0% | inhibition at 5 ppm [17]: 0% | inhibition at 10 ppm [17]: 0% | inhibition at 20 ppm [17]: 0% | inhibition at 40 ppm [17]: 0% | Spore Germination Rating ([4]; 1.0 ppm): 4 (80-100) | Spore Germination Rating ([4]; 2.5 ppm): 4 (80-100) | Spore Germination Rating ([4]; 10 ppm): 4 (80-100) | Spore Germination Rating ([4]; 40 ppm): 4 (80-100) | Spore Germination Rating ([5]; 1.0 ppm): 4 (80-100) | Spore Germination Rating ([5]; 2.5 ppm): 4 (80-100) | Spore Germination Rating ([5]; 10 ppm): 3 (60-80) | Spore Germination Rating ([5]; 40 ppm): 2 (40-60) | Spore Germination Rating ([6]; 1.0 ppm): 4 (80-100) | Spore Germination Rating ([6]; 2.5 ppm): 4 (80-100) | Spore Germination Rating ([6]; 10 ppm): 4 (80-100) | Spore Germination Rating ([6]; 40 ppm): 4 (80-100) | Spore Germination Rating ([7]; 1.0 ppm): 4 (80-100) | Spore Germination Rating ([7]; 2.5 ppm): 4 (80-100) | Spore Germination Rating ([7]; 10 ppm): 4 (80-100) | Spore Germination Rating ([7]; 40 ppm): 3 (60-80) | Spore Germination Rating ([8]; 1.0 ppm): 4 (80-100) | Spore Germination Rating ([8]; 2.5 ppm): 4 (80-100) | Spore Germination Rating ([8]; 10 ppm): 4 (80-100) | Spore Germination Rating ([8]; 40 ppm): 3 (60-80) | pest or weed control at 150 ppm [18]: 0% | pest or weed control at 150 ppm [19]: 0% | pest or weed control at 150 ppm [20]: 100% | inhibition at 5 ppm ([21]; read-out: Percent Fungus Growth Inhibition, HO, 5 ppm, 72 hours): 56% | inhibition at 10 ppm ([21]; read-out: Percent Fungus Growth Inhibition, HO, 10 ppm, 72 hours): 39% | inhibition at 20 ppm ([21]; read-out: Percent Fungus Growth Inhibition, HO, 20 ppm, 72 hours): 89% | inhibition at 40 ppm ([21]; read-out: Percent Fungus Growth Inhibition, HO, 40 ppm, 72 hours): 100%

N#Cc1c(Cl)c(Cl)c(Cl)c(C#N)c1Cl [Chlorothalonil, reference compound]
inhibition at 5 ppm [11]: 67% | inhibition at 10 ppm [11]: 70% | inhibition at 20 ppm [11]: 76% | inhibition at 40 ppm [11]: 82% | inhibition at 5 ppm [12]: 41% | inhibition at 10 ppm [12]: 41% | inhibition at 20 ppm [12]: 76% | inhibition at 40 ppm [12]: 88% | inhibition at 5 ppm [13]: 44% | inhibition at 10 ppm [13]: 50% | inhibition at 20 ppm [13]: 38% | inhibition at 40 ppm [13]: 75% | inhibition at 5 ppm [14]: 26% | inhibition at 10 ppm [14]: 15% | inhibition at 20 ppm [14]: 41% | inhibition at 40 ppm [14]: 48% | inhibition at 5 ppm [15]: 31% | inhibition at 10 ppm [15]: 40% | inhibition at 20 ppm [15]: 53% | inhibition at 40 ppm [15]: 73% | inhibition at 5 ppm [16]: 63% | inhibition at 10 ppm [16]: 63% | inhibition at 40 ppm [16]: 96% | inhibition at 20 ppm [16]: 71% | inhibition at 5 ppm [17]: 0% | inhibition at 10 ppm [17]: 31% | inhibition at 20 ppm [17]: 100% | inhibition at 40 ppm [17]: 100% | inhibition at 5 ppm [21, 22]: 50% | inhibition at 10 ppm [21, 22]: 59% | inhibition at 20 ppm [21, 22]: 73% | inhibition at 40 ppm [21, 22]: 95%

O=C1C2CC=CCC2C(=O)N1SC(Cl)(Cl)Cl (stereo not shown) [Captan, reference compound]
inhibition at 5 ppm [12]: 19% | inhibition at 10 ppm [12]: 33% | inhibition at 20 ppm [12]: 48% | inhibition at 40 ppm [12]: 44% | inhibition at 5 ppm [15]: 0% | inhibition at 10 ppm [15]: 0% | inhibition at 20 ppm [15]: 0% | inhibition at 40 ppm [15]: 0% | inhibition at 5 ppm [17]: 0% | inhibition at 10 ppm [17]: 0% | inhibition at 20 ppm [17]: 0% | inhibition at 40 ppm [17]: 0% | inhibition at 5 ppm [21, 22]: 18% | inhibition at 10 ppm [21, 22]: 46% | inhibition at 20 ppm [21, 22]: 62% | inhibition at 40 ppm [21, 22]: 65%

Source: patent US4450269A, “Mono-5-substituted-3-chloro-4H-1,2,6-thiadiazin-4-one antifungal agents” (FMC Corporation, priority 1980, dated 1984)
